One experiment deals with HL60 cell (Ag-). The experiment in a line: In vitro cytotoxicity (MTT) assay, HL60 cells. The format is cell-based. Conditions: HL-60 human promyelocytic leukemia cell line, 120 hours incubation. The method, then: (§1) The cell lines used in the cytotoxicity assays were HL-60, a human promyelocytic leukemia cell line; NCI-N87, a human gastric carcinoma cell line; and SKOV3, a human ovarian carcinoma cell line. […] For SKOV3 cells, the cells were grown in McCoy's 5A Medium with 10% FBS. To run the assay, the cells (180 µl, 6000 cells) were added to each well in a 96-well plate and incubated for 24 hours at 37°C with 5% CO2. Next, the cells were treated with test compounds (20 µl) at various concentrations in appropriate cell culture medium (total volume, 0.2 mL). The control wells contain cells and the medium but lack the test compounds. The plates were incubated for 120 hours at 37°C with 5% CO2. MTT (5mg/ml) was then added to the wells (20 µl) and the plates were incubated for 1.5hr at 37°C. The medium was carefully removed and DMSO (180 µl) was added afterward. […] The inhibition% was calculated according to the following equation: inhibition% = [1-(assay-blank)/(control-blank)] × 100.

The next experiment relates to SK-OV-3 cell (Ag+). The experiment in a line: In vitro cytotoxicity (MTT) assay, SK-OV-3 cells. Format: cell-based, human. As for the experimental part:
as §1

The next experiment concerns N87 cell (Ag+). Description: In vitro cytotoxicity (MTT) assay, N87 cells. The format is cell-based, human. The method, then:
as §1

The IC50 is the concentration that gives 50% inhibition. The low end stands for inhibition by little substance, the high end for a need for much substance. For the substance T-DM1, the IC50 is more than 15 nM with HL60 cell (Ag-); 0.177 nM in the experiment on SK-OV-3 cell (Ag+) (SKOV3 human ovarian carcinoma cell line, 120 hours incubation, MTT); 0.266 nM with N87 cell (Ag+) (NCI-N87 human gastric carcinoma cell line, 120 hours incubation, MTT). Further, the “Specificity for SK-OV-3 cell” value in the experiment with SK-OV-3 cell (Ag+) (matches ratio of HL60 (Ag-) IC50 bound to SK-OV-3 IC50) was “over 84”. Moreover, the “Specificity for N87 cell” value with N87 cell (Ag+) (matches ratio of HL60 (Ag-) IC50 bound to N87 IC50) is on record as “over 56”.
